These results are taken from patent publication US10758534B2 (Vertex Pharmaceuticals Incorporated, priority 2014, dated 2020).

A value given as a limit tells only on which side of the number the result lay.

The target in the first assay is T1, F508del (Homo sapiens, UniProt P13569, DEL508-508).
T1 construct: expressed in transfected cells
T1 sequence (P13569 with tags, fused parts or gaps DEL508-508): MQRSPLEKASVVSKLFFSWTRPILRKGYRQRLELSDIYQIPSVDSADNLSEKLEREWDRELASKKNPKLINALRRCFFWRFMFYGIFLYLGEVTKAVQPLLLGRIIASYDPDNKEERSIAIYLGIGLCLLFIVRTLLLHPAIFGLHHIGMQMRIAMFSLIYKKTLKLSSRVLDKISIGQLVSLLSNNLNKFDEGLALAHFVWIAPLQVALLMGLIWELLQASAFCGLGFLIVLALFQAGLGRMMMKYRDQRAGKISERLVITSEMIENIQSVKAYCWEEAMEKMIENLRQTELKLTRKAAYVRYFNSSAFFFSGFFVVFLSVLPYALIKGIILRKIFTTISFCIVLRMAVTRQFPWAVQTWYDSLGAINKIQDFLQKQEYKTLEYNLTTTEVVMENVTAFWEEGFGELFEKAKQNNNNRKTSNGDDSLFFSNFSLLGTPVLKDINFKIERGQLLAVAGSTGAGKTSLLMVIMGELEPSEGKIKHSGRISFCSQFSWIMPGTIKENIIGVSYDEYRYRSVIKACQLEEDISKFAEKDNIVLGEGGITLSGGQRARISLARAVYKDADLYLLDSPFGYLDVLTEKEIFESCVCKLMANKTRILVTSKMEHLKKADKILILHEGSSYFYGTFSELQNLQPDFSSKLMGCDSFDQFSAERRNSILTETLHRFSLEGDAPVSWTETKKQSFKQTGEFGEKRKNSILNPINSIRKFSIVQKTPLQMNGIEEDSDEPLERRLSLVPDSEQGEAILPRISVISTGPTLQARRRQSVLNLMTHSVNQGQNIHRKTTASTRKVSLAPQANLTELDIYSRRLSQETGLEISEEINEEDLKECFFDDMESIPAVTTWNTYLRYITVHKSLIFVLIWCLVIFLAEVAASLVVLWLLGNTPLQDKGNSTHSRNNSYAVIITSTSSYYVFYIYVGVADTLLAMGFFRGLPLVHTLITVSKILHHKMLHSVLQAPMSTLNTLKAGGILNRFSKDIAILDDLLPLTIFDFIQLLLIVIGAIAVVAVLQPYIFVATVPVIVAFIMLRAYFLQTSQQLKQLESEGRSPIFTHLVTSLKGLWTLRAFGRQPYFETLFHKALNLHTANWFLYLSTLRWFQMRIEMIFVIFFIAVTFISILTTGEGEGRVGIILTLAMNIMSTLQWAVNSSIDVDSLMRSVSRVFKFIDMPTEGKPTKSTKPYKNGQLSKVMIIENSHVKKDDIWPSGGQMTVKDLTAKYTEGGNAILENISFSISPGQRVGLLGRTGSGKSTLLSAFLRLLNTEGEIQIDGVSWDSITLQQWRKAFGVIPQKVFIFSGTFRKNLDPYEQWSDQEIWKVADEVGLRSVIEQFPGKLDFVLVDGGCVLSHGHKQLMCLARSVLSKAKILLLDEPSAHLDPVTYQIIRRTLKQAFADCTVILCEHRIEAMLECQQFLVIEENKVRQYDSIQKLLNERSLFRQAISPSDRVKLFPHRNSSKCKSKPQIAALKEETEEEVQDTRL
Put plainly: Protocol 2: FRET membrane potential optical assay (VIPR), identification of correction compounds. The note with it: F508del CFTR modulator activity; compounds of Table 1; read-out: EC30. In kind it is cell-based. A digest of the protocol:
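Mouse NIH3T3 cells, stable F508del; cpd 16 hrs, 37° C., serum-free; pos ctrl 27° C. 16 hrs. Rinse in Krebs Ringers, dye load, then add 10 μM forskolin + 20 μM genistein with Cl^−-free (gluconate) medium; depolarization by FRET voltage dyes.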
Turning to `COc1ccccc1-c1ccc(C(=O)NS(=O)(=O)c2ccc[nH]c2=O)c(N2C[C@@H](C)CC2(C)C)n1` [Compound 2485, 6-(2-methoxyphenyl)-N-[(2-oxo-1H-pyridin-3-yl)sulfonyl]-2-[(4S)-2,2,4-trimethylpyrrolidin-1-yl]pyridine-3-carboxamide], the EC30 (in general, the point of the concentration-response curve where the effect stands at 30%) was less than 3000 nM. On the same count and under the same terms, to `CC(C)COc1cc(F)cc(-c2ccc(C(=O)NS(=O)(=O)N3CC[C@@H](O)C3)c(N3C[C@@H](C)CC3(C)C)n2)c1` [Compound 2427, 6-(3-fluoro-5-isobutoxy-phenyl)-N-[(3R)-3-hydroxypyrrolidin-1-yl]sulfonyl-2-[(4S)-2,2,4-trimethylpyrrolidin-1-yl]pyridine-3-carboxamide] belongs less than 3000 nM. The same measure, in the same setting: then `CC1CN(c2ncccc2C(=O)NS(=O)(=O)c2cccc(OCC3OCc4ccccc4O3)n2)C(C)(C)C1` (centres unmarked) [Compound 2627, N—[[6-(4H-1,3-benzodioxin-2-ylmethoxy)-2-pyridyl]sulfonyl]-2-(2,2,4-trimethylpyrrolidin-1-yl)pyridine-3-carboxamide], with less than 3000 nM. Still for that read-out and setting: to `Cc1cc(OCC(C)C)cc(-c2cnc(N3CC(C)CC3(C)C)c(C(=O)NS(=O)(=O)c3cccc(N)n3)c2)c1` (centres unmarked) [Compound 2558, N-[(6-amino-2-pyridyl)sulfonyl]-5-(3-isobutoxy-5-methyl-phenyl)-2-(2,2,4-trimethylpyrrolidin-1-yl)pyridine-3-carboxamide] belongs less than 3000 nM; to `C[C@@H]1CN(c2nc(-c3cccc(F)c3)ccc2C(=O)NS(=O)(=O)N2CC[C@H](N)C2)C(C)(C)C1` [Compound 2414, N-[(3S)-3-aminopyrrolidin-1-yl]sulfonyl-6-(3-fluorophenyl)-2-[(4S)-2,2,4-trimethylpyrrolidin-1-yl]pyridine-3-carboxamide], 3000 to 10000 nM; to `Cc1ccc(F)cc1-c1ccc(C(=O)NS(=O)(=O)c2cccc(N)n2)c(N2C[C@@H](C)CC2(C)C)n1` [Compound 2394, N-[(6-amino-2-pyridyl)sulfonyl]-6-(5-fluoro-2-methyl-phenyl)-2-[(4S)-2,2,4-trimethylpyrrolidin-1-yl]pyridine-3-carboxamide], less than 3000 nM.

`CC1CN(c2ncccc2C(=O)NS(=O)(=O)c2cccc(Oc3ccc(Cl)cn3)n2)C(C)(C)C1` (centres unmarked) [Compound 2736]: the EC30 lay within 3000 to 10000 nM. For `C[C@@H]1CN(c2nc(-c3ccc(C#N)cc3)ccc2C(=O)NS(=O)(=O)c2cccnc2N)C(C)(C)C1` [Compound 2096, N-[(2-amino-3-pyridyl)sulfonyl]-6-(4-cyanophenyl)-2-[(4S)-2,2,4-trimethylpyrrolidin-1-yl]pyridine-3-carboxamide], the EC30 was less than 3000 nM. The same measure, in the same setting: then `CC1CN(c2ncccc2C(=O)NS(=O)(=O)c2cccc(NCCCCNC(=O)OC(C)(C)C)n2)C(C)(C)C1` (centres unmarked) [Compound 2335, tert-butyl N—[4-[[6-[[2-(2,2,4-trimethylpyrrolidin-1-yl)pyridine-3-carbonyl]sulfamoyl]-2-pyridyl]amino]butyl]carbamate], with 3000 to 10000 nM.

Turning to `Nc1cccc(S(=O)(=O)NC(=O)c2cccnc2Oc2ccccc2-c2nc3ccccc3o2)n1` [Compound 2544, N-[(6-amino-2-pyridyl)sulfonyl]-2-[2-(1,3-benzoxazol-2-yl)phenoxy]pyridine-3-carboxamide], the concentration for an effect of 30% (EC30) was more than 10000 nM.

As for `CCOCCOCCOc1ccn(-c2ccc(C(=O)NS(=O)(=O)c3cccnc3N)c(N3C[C@@H](C)CC3(C)C)n2)n1` [Compound 2326, N-[(2-amino-3-pyridyl)sulfonyl]-6-[3-[2-(2-ethoxyethoxy)ethoxy]pyrazol-1-yl]-2-[(4S)-2,2,4-trimethylpyrrolidin-1-yl]pyridine-3-carboxamide], the EC30 is less than 3000 nM. The same measure, in the same setting: then `C[C@@H]1CN(c2nc(-c3cccc(F)c3O)ccc2C(=O)NS(=O)(=O)c2cccnc2N)C(C)(C)C1` [Compound 2446, N-[(2-amino-3-pyridyl)sulfonyl]-6-(3-fluoro-2-hydroxy-phenyl)-2-[(4S)-2,2,4-trimethylpyrrolidin-1-yl]pyridine-3-carboxamide], with less than 3000 nM.

With `COc1cc(F)ccc1-c1ccc(C(=O)NS(=O)(=O)c2cccnc2N)c(N2C[C@@H](C)CC2(C)C)n1` [Compound 2482, N-[(2-amino-3-pyridyl)sulfonyl]-6-(4-fluoro-2-methoxy-phenyl)-2-[(4S)-2,2,4-trimethylpyrrolidin-1-yl]pyridine-3-carboxamide], the 30% effect concentration (EC30) is less than 3000 nM.

Staying with this assay, now noted: Table 3; compounds of Table 1 as modulators of CFTR activity; protocol not stated.
Turning to `Cc1cc(C)c(Cn2nc(-c3cccc(C)c3F)cc2C(=O)NS(=O)(=O)c2cccc(N)c2)c(C)c1` [Compound 293, N-(3-aminophenyl)sulfonyl-5-(2-fluoro-3-methyl-phenyl)-2-[(2,4,6-trimethylphenyl)methyl]pyrazole-3-carboxamide], the 30% effect concentration (EC30) result is given as “+++ (“+++” means <3 uM)”.

`Cc1cccc(C)c1Cn1nc(-c2ccc3c(ccn3C)c2)cc1C(=O)NS(=O)(=O)c1ccccc1` [Compound 263, N-(benzenesulfonyl)-2-[(2,6-dimethylphenyl)methyl]-5-(1-methylindol-5-yl)pyrazole-3-carboxamide]: the EC30 result is “+++ (“+++” means <3 uM)”. As for `CCC(c1ccccc1)n1nc(C(C)(C)C)cc1C(=O)NS(=O)(=O)c1cccc(N)c1` (centres unmarked) [Compound 165, N-(3-aminophenyl)sulfonyl-5-tert-butyl-2-(1-phenylpropyl)pyrazole-3-carboxamide], the 30% effect concentration (EC30) result is recorded as “+++ (“+++” means <3 uM)”.

`CC1(CNc2nc(C(C)(C)C)ccc2C(=O)NS(=O)(=O)c2ccc(N)cc2)CCOCC1` [Compound 752, N-(4-aminophenyl)sulfonyl-6-tert-butyl-2-[(4-methyltetrahydropyran-4-yl)methylamino]pyridine-3-carboxamide]: the 30% effect concentration (EC30) entry was “++ (“++” means between 3 uM and 10 uM)”. Still for that read-out and setting: then `CC(C)Oc1ccc(-c2ccc(C(=O)NS(=O)(=O)c3cccc(N)n3)c(N3CC[C@@H](C)[C@H]3C)n2)cn1` [Compound 441, N-[(6-amino-2-pyridyl)sulfonyl]-2-[(2R,3R)-2,3-dimethylpyrrolidin-1-yl]-6-(6-isopropoxy-3-pyridyl)pyridine-3-carboxamide], with “+++ (“+++” means <3 uM)”. On the same count and under the same terms, then `Cc1cc(C)c(Oc2nc(-c3ccc(OC(C)C)cc3)ccc2C(=O)NS(=O)(=O)c2cccc(N)n2)c(C)c1` [Compound 436, N-[(6-amino-2-pyridyl)sulfonyl]-6-(4-isopropoxyphenyl)-2-(2,4,6-trimethylphenoxy)pyridine-3-carboxamide], with “+++ (“+++” means <3 uM)”; and `COc1ccc(F)cc1-c1cc(C(=O)NS(=O)(=O)c2ccccc2)n(Cc2c(C)cccc2C)n1` [Compound 27, N-(benzenesulfonyl)-2-[(2,6-dimethylphenyl)methyl]-5-(5-fluoro-2-methoxy-phenyl)pyrazole-3-carboxamide], with “+++ (“+++” means <3 uM)”.

Regarding `Cc1cc(C)c(Oc2nc(C3CCC(C)(C)CC3)ccc2C(=O)NS(=O)(=O)c2cccc(N)n2)c(C)c1` [Compound 538, N-[(6-amino-2-pyridyl)sulfonyl]-6-(4,4-dimethylcyclohexyl)-2-(2,4,6-trimethylphenoxy)pyridine-3-carboxamide], the EC30 result is listed as “+++ (“+++” means <3 uM)”. For the molecule `Cc1ccccc1C(C)Oc1nc(-c2cc(F)cc(OCC(C)C)c2)ccc1C(=O)NS(=O)(=O)c1cccc(N)n1` (centres unmarked) [Compound 782, N-[(6-amino-2-pyridyl)sulfonyl]-6-(3-fluoro-5-isobutoxy-phenyl)-2-[1-(o-tolyl)ethoxy]pyridine-3-carboxamide], the EC30 result is “+++ (“+++” means <3 uM)”. Same read-out and setting: to `Cc1cc(C)c(Cn2nc(CC(C)C)cc2C(=O)NS(=O)(=O)c2cccc(N)c2)c(C)c1` [Compound 167, N-(3-aminophenyl)sulfonyl-5-isobutyl-2-[(2,4,6-trimethylphenyl)methyl]pyrazole-3-carboxamide] belongs “++ (“++” means between 3 uM and 10 uM)”. The same measure, in the same setting: then `Cc1ccccc1-c1ccc(C(=O)NS(=O)(=O)c2cccc(N)n2)c(N2CC(C)CC2(C)C)n1` (centres unmarked) [Compound 761, N-[(6-amino-2-pyridyl)sulfonyl]-6-(o-tolyl)-2-(2,2,4-trimethylpyrrolidin-1-yl)pyridine-3-carboxamide], with “+++ (“+++” means <3 uM)”; and `COC(=O)C(C(=O)c1cc(C(C)(C)C)nn1Cc1c(C)cccc1C)S(=O)(=O)c1ccccc1` (centres unmarked) [Compound 4, Methyl 2-(benzenesulfonyl)-3-[5-tert-butyl-2-[(2,6-dimethylphenyl)methyl]pyrazol-3-yl]-3-oxo-propanoate], with “+ (“+” means greater than 10 uM)”; and `CC(C)Oc1ccc(-c2ccc(C(=O)NS(=O)(=O)c3cccc(N)n3)c(N3CCC(C)C3(C)C)n2)cn1` (centres unmarked) [Compound 464, N-[(6-amino-2-pyridyl)sulfonyl]-6-(6-isopropoxy-3-pyridyl)-2-(2,2,3-trimethylpyrrolidin-1-yl)pyridine-3-carboxamide], with “+++ (“+++” means <3 uM)”. Same read-out and setting: to `CC(C)(C)c1ccc(C(=O)NS(=O)(=O)c2cccc(N)c2)c(-c2ccc(C(F)(F)F)cc2)n1` [Compound 129, N-(3-aminophenyl)sulfonyl-6-tert-butyl-2-[4-(trifluoromethyl)phenyl]pyridine-3-carboxamide] belongs “++ (“++” means between 3 uM and 10 uM)”. Take `CC(C)Oc1ccc(-c2ccc(C(=O)NS(=O)(=O)c3cccc(N)n3)c(N3CCC(Cc4ccccc4)C3C)n2)cn1` (centres unmarked) [Compound 658, N-[(6-amino-2-pyridyl)sulfonyl]-2-(3-benzyl-2-methyl-pyrrolidin-1-yl)-6-(6-isopropoxy-3-pyridyl)pyridine-3-carboxamide]: the concentration for an effect of 30% (EC30) result is listed as “+++ (“+++” means <3 uM)”. Still for that read-out and setting: to `CC(C)COc1cc(F)cc(-c2ccc(C(=O)NS(=O)(=O)c3cccc(N)n3)c(N3CC[C@H](C)C3(C)C)n2)c1` [Compound 547, N-[(6-amino-2-pyridyl)sulfonyl]-6-(3-fluoro-5-isobutoxy-phenyl)-2-[(3S)-2,2,3-trimethylpyrrolidin-1-yl]pyridine-3-carboxamide] belongs “+++ (“+++” means <3 uM)”.
